Drawing on PubChem BioAssay (NCI), this text covers GI50 and TGI for ten compounds.

Some test systems named below: NCI-H23 lung; HL-60(TB) leukemia; SF-268 CNS; OVCAR-3 ovarian; LOX IMVI melanoma; HCC-2998 colon; SF-295 CNS; SW-620 colon; UACC-62 melanoma; SK-MEL-28 melanoma.
What all share (assay): NCI tumour cell line growth inhibition, 48 h

Several values for one entry are separate records, joined by “and”; a condition that tells them apart may be missing. Equal values may be shown once.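 Test compounds were applied to cells in 96-well plates for 48 hours at 5 doses. GI50 is the concentration that inhibits growth by half. TGI marks complete inhibition of growth.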

As to `Cc1ccnc(NC(c2ccccc2)c2ccc3cccnc3c2O)c1` (centres undefined), the GI50 with NCI-H23 lung was 5.12 µM; in the assay on HL-60(TB) leukemia it was 1.7 µM; in the assay on SF-268 CNS, 2.93 µM; in the assay on OVCAR-3 ovarian, 2.79 µM; with LOX IMVI melanoma, 3.29 µM; with HCC-2998 colon it was 7.12 µM. For the same compound, the GI50 is 2.42 µM in the assay with SF-295 CNS, 3.86 µM with SW-620 colon, 4.42 µM with UACC-62 melanoma and 13.8 µM in the assay with SK-MEL-28 melanoma. Moreover, the TGI in the assay on NCI-H23 lung was above 100 µM; with HL-60(TB) leukemia, 5.4 µM; in the assay with SF-268 CNS, 21.5 µM; with OVCAR-3 ovarian it was 14 µM; with LOX IMVI melanoma, 34.2 µM; in the assay with HCC-2998 colon, above 100 µM. Moreover, the TGI in the assay with SF-295 CNS was 16.3 µM; in the assay with SW-620 colon, 15.6 µM; in the assay on UACC-62 melanoma, 87.9 µM; with SK-MEL-28 melanoma, above 100 µM.
Take `O=C(c1ccccc1)c1c2n(c3c1cc(O)c1ccccc13)CCN2`: the GI50 in the assay on NCI-H23 lung was 4.17 µM; in the assay with HL-60(TB) leukemia, 2.17 µM; in the assay on SF-268 CNS it was 3.19 µM; with OVCAR-3 ovarian, 2.23 µM; in the assay on LOX IMVI melanoma, 2.7 µM; with HCC-2998 colon, 6.11 µM. Also, the GI50 is 7.11 µM in the assay on SF-295 CNS, 3.47 µM in the assay with SW-620 colon, 5.15 µM in the assay on UACC-62 melanoma and 12.1 µM in the assay with SK-MEL-28 melanoma. Besides, the TGI came to 12 µM in the assay on NCI-H23 lung; 4.47 µM in the assay with HL-60(TB) leukemia; 9.85 µM in the assay with SF-268 CNS; 7.82 µM with OVCAR-3 ovarian; 6.87 µM in the assay on LOX IMVI melanoma; 18.9 µM in the assay on HCC-2998 colon. The TGI in the assay on SF-295 CNS came out at 20.8 µM; with SW-620 colon it was 14.8 µM; in the assay with UACC-62 melanoma, 17.4 µM; in the assay on SK-MEL-28 melanoma, 27.3 µM.
Regarding `O=C1Nc2c(ccc(Cl)c2Cl)/C1=C\c1cc(C(F)(F)F)cc(C(F)(F)F)c1`, the GI50 in the assay with NCI-H23 lung was 4.95 µM; with HL-60(TB) leukemia, 1.13 µM; in the assay on SF-268 CNS, 1.86 µM; in the assay with OVCAR-3 ovarian it was 1.1 µM; with LOX IMVI melanoma, 1.12 µM; in the assay on HCC-2998 colon, 7.71 µM. Further, the GI50 in the assay with SF-295 CNS was 1.92 µM; in the assay with SW-620 colon, 1.66 µM; with UACC-62 melanoma it was 1.77 µM; in the assay on SK-MEL-28 melanoma, 2.1 µM. The TGI came out at 21.6 µM in the assay on NCI-H23 lung; 2.37 µM in the assay on HL-60(TB) leukemia; 8.51 µM in the assay on SF-268 CNS; 4.27 µM in the assay on OVCAR-3 ovarian; 3.69 µM in the assay on LOX IMVI melanoma; 14.9 µM with HCC-2998 colon. Also, the TGI in the assay with SF-295 CNS was found to be 8.02 µM; in the assay with SW-620 colon it was 6.1 µM; with UACC-62 melanoma, 7.41 µM; in the assay on SK-MEL-28 melanoma it was 7.61 µM.
For `O=C(CC(=O)N1N=C(c2ccccc2)C(N=Nc2ccccc2Cl)C1=O)Nc1ccccc1Cl` (centres undefined), the TGI in the assay with NCI-H23 lung is above 100 µM; in the assay with HL-60(TB) leukemia, 25.9 µM; in the assay with SF-268 CNS it was above 100 µM; in the assay on OVCAR-3 ovarian, 81.3 µM; in the assay with LOX IMVI melanoma it was above 100 µM; in the assay on HCC-2998 colon, above 100 µM. The TGI in the assay with SF-295 CNS was 65.3 µM; in the assay with SW-620 colon, above 100 µM; in the assay on UACC-62 melanoma, above 100 µM; with SK-MEL-28 melanoma, above 100 µM.
In the case of `O=C(Nc1ccc(Cl)cc1)c1cc2ccccc2cc1OP(=O)(O)O`, the GI50 in the assay on NCI-H23 lung is 2.42 µM; in the assay on HL-60(TB) leukemia, above 100 µM; with SF-268 CNS, 3.9 µM; in the assay with OVCAR-3 ovarian, 3.22 µM; with LOX IMVI melanoma it was 3.52 µM; in the assay on HCC-2998 colon, 4.19 µM. Further, the GI50 was 8.6 µM with SF-295 CNS, 4.07 µM in the assay with SW-620 colon, 2.66 µM in the assay with UACC-62 melanoma and 4.88 µM in the assay with SK-MEL-28 melanoma. Also, the TGI in the assay on NCI-H23 lung was 9.95 µM; with HL-60(TB) leukemia, above 100 µM; in the assay on SF-268 CNS, 40 µM; in the assay on OVCAR-3 ovarian it was 11.2 µM; in the assay with LOX IMVI melanoma, 17.5 µM; in the assay on HCC-2998 colon, 29.9 µM. Moreover, the TGI in the assay with SF-295 CNS was 31.9 µM; in the assay on SW-620 colon it was 37.5 µM; with UACC-62 melanoma, above 100 µM; in the assay on SK-MEL-28 melanoma it was 55.3 µM.
As to `Cc1cc(N(CCC#N)CCC#N)ccc1CC1N=C(c2ccccc2)OC1=O` (centres undefined), the TGI in the assay with NCI-H23 lung, with HL-60(TB) leukemia, in the assay with SF-268 CNS, in the assay with OVCAR-3 ovarian, in the assay with LOX IMVI melanoma and with HCC-2998 colon was above 100 µM in each case. The TGI in the assay on SF-295 CNS, in the assay with SW-620 colon, with UACC-62 melanoma and in the assay on SK-MEL-28 melanoma was above 100 µM throughout.
Regarding `CC(C)=Cc1cc(C(=O)NCCNC(=O)c2cc(C=C(C)C)nc(NC#N)n2)nc(NC#N)n1`, the TGI in the assay on NCI-H23 lung, with HL-60(TB) leukemia, in the assay on SF-268 CNS, in the assay on OVCAR-3 ovarian, in the assay with LOX IMVI melanoma and with HCC-2998 colon was above 100 µM each time. Besides, the TGI in the assay with SF-295 CNS, with SW-620 colon, in the assay with UACC-62 melanoma and with SK-MEL-28 melanoma was above 100 µM throughout.
Take `O=C(NC(Cc1ccccc1)C(=O)CCl)OCc1ccccc1` (centres undefined): the GI50 is 10.5 µM with NCI-H23 lung; 14.3 µM in the assay on HL-60(TB) leukemia; 4.36 µM in the assay with SF-268 CNS; 3.65 µM in the assay with OVCAR-3 ovarian; 1.3 µM in the assay on LOX IMVI melanoma; 12.3 µM in the assay with HCC-2998 colon. For the same compound, the GI50 in the assay on SW-620 colon was 1.91 µM; with UACC-62 melanoma, 4.52 µM; in the assay on SK-MEL-28 melanoma it was 5.55 µM. Also, the TGI in the assay with NCI-H23 lung is 30.7 µM and 26.1 µM; with HL-60(TB) leukemia it was 43.1 µM and 13.4 µM; in the assay with SF-268 CNS, 16.3 µM and 26.3 µM; in the assay with OVCAR-3 ovarian, 11.8 µM and 18.7 µM; in the assay with LOX IMVI melanoma it was 3.12 µM and 7.49 µM; in the assay with HCC-2998 colon it was 28.8 µM and 32.2 µM. The TGI in the assay with SF-295 CNS is 33 µM and 29.2 µM; with SW-620 colon, 5.23 µM and 15.8 µM; in the assay on UACC-62 melanoma it was 17.7 µM and 21.2 µM; with SK-MEL-28 melanoma, 19.3 µM and 25.3 µM.
Regarding `CC(O)c1ccc(C(O)/C(=N\NC(=O)c2ccncc2)c2nc3ccc([N+](=O)[O-])cc3[nH]c2=O)cc1` (centres undefined), the TGI in the assay with NCI-H23 lung, in the assay on HL-60(TB) leukemia, in the assay on SF-268 CNS, in the assay with OVCAR-3 ovarian, with LOX IMVI melanoma and in the assay on HCC-2998 colon was above 100 µM throughout. The TGI with SF-295 CNS, in the assay with SW-620 colon, in the assay with UACC-62 melanoma and with SK-MEL-28 melanoma was above 100 µM in each case.
With `COC(=O)[C@H](C)[C@@H]1CC[C@](C)(CCC2=C(C)CCCC2(C)C)OO1`, the TGI in the assay on NCI-H23 lung, in the assay on HL-60(TB) leukemia, with SF-268 CNS, with OVCAR-3 ovarian, in the assay with LOX IMVI melanoma and in the assay with HCC-2998 colon was above 25 µM throughout. In addition, the TGI with SF-295 CNS, with SW-620 colon, in the assay on UACC-62 melanoma and in the assay on SK-MEL-28 melanoma was above 25 µM in each case.
